This passage reports EC50, inhibition in vivo and Activity results from ChEMBL document CHEMBL4811278, “Discovery of novel modulators for the PPARα (peroxisome proliferator activated receptor α): Potential therapies for nonalcoholic fatty liver disease” (Bioorg Med Chem, 2021).

Series [1] concerns the target T1, Peroxisome proliferator-activated receptor delta (Homo sapiens, UniProt Q03181).
T1 sequence (Q03181 whole entry): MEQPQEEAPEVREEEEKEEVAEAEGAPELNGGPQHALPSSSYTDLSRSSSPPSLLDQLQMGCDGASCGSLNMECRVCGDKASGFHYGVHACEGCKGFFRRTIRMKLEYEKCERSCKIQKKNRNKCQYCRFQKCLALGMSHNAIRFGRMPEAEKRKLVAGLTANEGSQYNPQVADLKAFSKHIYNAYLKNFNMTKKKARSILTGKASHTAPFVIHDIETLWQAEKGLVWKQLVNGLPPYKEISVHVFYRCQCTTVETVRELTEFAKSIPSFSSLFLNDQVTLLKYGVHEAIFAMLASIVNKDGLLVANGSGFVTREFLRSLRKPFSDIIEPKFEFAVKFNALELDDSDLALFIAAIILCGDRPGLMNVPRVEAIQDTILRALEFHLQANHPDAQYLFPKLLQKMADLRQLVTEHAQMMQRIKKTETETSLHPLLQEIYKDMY
Put plainly: Agonist activity at Gal4-fused human PPARdelta expressed in monkey CV1 cells assessed as receptor transactivation incubated for 45 hrs by luciferase reporter gene assay. It is filed as cell-based, CV-1.

The test system of series [2] is Mus musculus. Put plainly: Hypolipidemic activity in high fat diet-induced nonalcoholic steatohepatitis C57BL/6J mouse model assessed as reduction in plasma triglyceride level at 3 mg/kg, po administered via gavage and measured after 24 hrs. It is filed as functional.
For series [3], the target named is T2, Peroxisome proliferator-activated receptor alpha (Mus musculus) (UniProt P23204).
T2 sequence (whole entry): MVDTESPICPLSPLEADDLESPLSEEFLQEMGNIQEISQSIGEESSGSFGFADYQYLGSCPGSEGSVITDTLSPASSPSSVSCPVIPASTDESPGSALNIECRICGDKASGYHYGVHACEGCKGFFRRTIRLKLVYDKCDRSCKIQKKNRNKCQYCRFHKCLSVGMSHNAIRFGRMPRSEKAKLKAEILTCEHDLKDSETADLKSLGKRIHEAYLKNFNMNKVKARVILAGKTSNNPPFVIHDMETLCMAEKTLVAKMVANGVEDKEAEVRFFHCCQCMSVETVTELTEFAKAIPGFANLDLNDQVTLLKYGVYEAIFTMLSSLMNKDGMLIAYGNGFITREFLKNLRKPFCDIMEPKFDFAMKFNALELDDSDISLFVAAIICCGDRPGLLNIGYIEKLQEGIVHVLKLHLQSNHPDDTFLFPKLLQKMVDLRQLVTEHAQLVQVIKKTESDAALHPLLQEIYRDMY
In words: In vivo agonist activity at PPARalpha in high fat diet-induced nonalcoholic steatohepatitis C57BL/6J mouse model assessed as increase in ACOX1 mRNA expression in liver administered at 3 mg/kg, po and measured after 24 hrs by quantitative real time PCR analysis. It counts as functional, organism-based. A general note: Quantitative PCR measures a nucleic acid by following its amplification.

The target of series [4] is T2, Peroxisome proliferator-activated receptor alpha (Mus musculus). In words: In vivo agonist activity at PPARalpha in high fat diet-induced nonalcoholic steatohepatitis C57BL/6J mouse model assessed as increase in Cyp4a3 mRNA expression in liver administered at 3 mg/kg, po and measured after 24 hrs by quantitative real time PCR analysis. It counts as functional, organism-based.

The target is the same in series [5]. Put plainly: In vivo agonist activity at PPARalpha in high fat diet-induced nonalcoholic steatohepatitis C57BL/6J mouse model assessed as increase in Cyp4a3 mRNA expression in liver administered at 3 mg/kg, po administered once daily for 7 days by quantitative real time PCR analysis. It counts as functional, organism-based. Particulars: time 7.0 day.
Series [6] shares this target. In words: In vivo agonist activity at PPARalpha in high fat diet-induced nonalcoholic steatohepatitis C57BL/6J mouse model assessed as increase in LPL mRNA expression in liver administered at 3 mg/kg, po administered once daily for 7 days by quantitative real time PCR analysis. It is filed as functional, organism-based. As to conditions: time 7.0 day.
Series [7] shares this target. Put plainly: In vivo agonist activity at PPARalpha in high fat diet-induced nonalcoholic steatohepatitis C57BL/6J mouse model assessed as transrepression of ApoC3 mRNA expression in liver administered at 3 mg/kg, po administered once daily for 7 days by quantitative real time PCR analysis. It is filed as functional, organism-based. As to conditions: time 7.0 day.
For series [8] the target is unchanged. Put plainly: In vivo agonist activity at PPARalpha in high fat diet-induced nonalcoholic steatohepatitis C57BL/6J mouse model assessed as increase in ACOX1 mRNA expression in liver administered at 3 mg/kg, po administered once daily for 7 days by quantitative real time PCR analysis. It is filed as functional, organism-based. Particulars: time 7.0 day.
Series [9] shares this target. In words: In vivo agonist activity at PPARalpha in high fat diet-induced nonalcoholic steatohepatitis C57BL/6J mouse model assessed as increase in mCPT1A gene expression in liver at 3 mg/kg, po administered once daily for 7 days and measured at >3 days by quantitative real time PCR analysis. It counts as functional, organism-based. As to conditions: time day >3.
For series [10] the target is unchanged. In words: In vivo agonist activity at PPARalpha in high fat diet-induced nonalcoholic steatohepatitis C57BL/6J mouse model assessed as increase in mACADM gene expression in liver at 3 mg/kg, po administered once daily for 7 days by quantitative real time PCR analysis. It counts as functional, organism-based. As to conditions: time 7.0 day.
Series [11] in a line: Toxicity in high fat diet-induced nonalcoholic steatohepatitis C57BL/6J mouse model assessed as increase in plasma glucose level at 3 mg/kg, po administered once daily for 7 days and measured after 4 days. It counts as organism-based. Particulars: in vivo, 96 h, time 4 day.
Series [12] can be described thus: Toxicity in C57BL/6J mouse assessed as reduction in body weight measured after 24 hrs. As to conditions: in vivo.
Series [13] in a line: Toxicity in C57BL/6J mouse assessed as reduction in body weight measured after 72 hrs. As to conditions: in vivo.
Series [14] has as its system Mus musculus. Put plainly: Hypolipidemic activity in high fat diet-induced nonalcoholic steatohepatitis PPARalpha knockout C57BL/6J mouse model assessed as reduction in plasma triglyceride levels at 3 mg/kg, po measured after 72 hrs. It is filed as functional, organism-based.
Series [15] relates to Mus musculus. In words: Hypolipidemic activity in wild type high fat diet-induced nonalcoholic steatohepatitis C57BL/6J mouse model assessed as reduction in plasma triglyceride levels at 3 mg/kg, po measured after 72 hrs. It is filed as functional, organism-based.
Series [16] deals with Mus musculus. Put plainly: Hypolipidemic activity in high fat diet-induced nonalcoholic steatohepatitis C57BL/6J mouse model assessed as reduction in hepatocellular vacuolation at 3 mg/kg, po administered once daily for 1 week by Oil Red O staining based assay. It counts as functional, organism-based. As to conditions: time 1.0 weeks.
The subject of series [17] is Mus musculus. In words: Hypolipidemic activity in high fat diet-induced nonalcoholic steatohepatitis C57BL/6J mouse model assessed as reduction in fat droplets in liver at 3 mg/kg, po administered once daily for 1 week by Oil Red O staining based assay. It is filed as functional, organism-based. As to conditions: time 1.0 weeks.
Series [18] concerns Mus musculus. In words: Hypolipidemic activity in high fat diet-induced nonalcoholic steatohepatitis C57BL/6J mouse model assessed as reduction in hepatic […] content at 3 mg/kg, po administered once daily via gavage for 7 days. It is filed as functional, organism-based. Particulars: time 7.0 day.
Series [19] has as its system Mus musculus. In words: Upregulation of PPARalpha expression in liver of high fat diet-induced nonalcoholic steatohepatitis C57BL/6J mouse model at 3 mg/kg, po and measured after 24 hrs by quantitative real time PCR analysis. It counts as functional, organism-based.

The source made the active and inactive calls. No cut-off for these calls is given here.

One may read the EC50 as the concentration at which the effect is half-maximal. A word on the inhibition in vivo: it is the drop in the measured response relative to a control, in per cent. Turning to `COc1ccc(Cn2c(CCCc3ccc(OC(C)(C)C(=O)O)cc3)nn(Cc3ccc(C)cc3)c2=O)cc1`, the EC50 in [1] is over 10 µM. Further, the inhibition in vivo at 3 mg/kg with Mus musculus [2] was at least 50%. Besides, the result in series [3], in series [4], in [5], in [6], in [7] and in series [8] was Active. In addition, the outcome (in [9]; in [10]; in the series with Mus musculus [15]; in the series on Mus musculus [16]; in the series with Mus musculus [17]; in the series with Mus musculus [18]) was Active. Moreover, the outcome with Mus musculus [19] was Active. Besides, the Activity result in series [11], in series [12] and in series [13] was “Non-Toxic” each time. Further, in the series with Mus musculus [14], the result was inactive.
